# Measured values published in patent US10029992B2, “Diaminotriazine compounds and their use as herbicides” (BASF SE, priority 2014, dated 2018).
# Legend:
# Assay in all cases: Greenhouse experiment, pre-emergence treatment
# Conditions in all cases: pre-emergence method
# AMARE = assay type: in vivo, Amaranthus retroflexus
# Text: (§1) The seeds of the test plants were sown separately for each species. For the pre-emergence treatment, the active ingredients, which had been suspended or emulsified in water, were applied directly after sowing by means of finely distributing nozzles. The containers were irrigated gently to promote germination and growth and subsequently covered with transparent plastic hoods until the plants had rooted. This cover caused uniform germination of the test plants, unless this had been impaired by the active ingredients. Depending on the species, the plants were kept at 10-25° C. or 20-35° C., respectively. The test period extended over 2 to 4 weeks. During this time, the plants were tended, and their response to the individual treatments was evaluated. Evaluation was carried out using a scale from 0 to 100. 100 means no emergence of the plants, or complete destruction of at least the aerial moieties, and 0 means no damage, or normal course of growth. A moderate herbicidal activity is given at values of at least 60, a good herbicidal activity is given at values of at least 70, and a very good herbicidal activity is given at values of at least 85. […] [table]
# APESV = assay type: in vivo, Apera spica-venti
# Text: (§2) The culture containers used were plastic flowerpots containing loamy sand with approximately 3.0% of humus as the substrate. The seeds of the test plants were sown separately for each species.
# (§3) For the pre-emergence treatment, the active ingredients, which had been suspended or emulsified in water, were applied directly after sowing by means of finely distributing nozzles. The containers were irrigated gently to promote germination and growth and subsequently covered with transparent plastic hoods until the plants had rooted. This cover caused uniform germination of the test plants, unless this had been impaired by the active ingredients.
# (§4) Depending on the species, the plants were kept at 10-25° C. or 20-35° C., respectively.
# (§5) The test period extended over 2 to 4 weeks. During this time, the plants were tended, and their response to the individual treatments was evaluated.
# (§6) Evaluation was carried out using a scale from 0 to 100. 100 means no emergence of the plants, or complete destruction of at least the aerial moieties, and 0 means no damage, or normal course of growth. A moderate herbicidal activity is given at values of at least 60, a good herbicidal activity is given at values of at least 70, and a very good herbicidal activity is given at values of at least 85.
# (§7) The plants used in the greenhouse experiments were of the following species: […]
# ECHCG = assay type: in vivo, Echinochloa crus-galli
# Text: as §2, §3, §4, §5, §6, §7
# SETFA = assay type: in vivo, Setaria faberi
# Text: as §1
compound,measurement,setting,value
CC(C)(F)c1nc(N)nc(Nc2c(F)cccc2Oc2cccc(F)c2)n1 [Example 10],herbicidal activity against AMARE,AMARE; application rate 0.5 kg/ha,very good (a very good herbicidal activity is given at values of at least 85)
same,herbicidal activity against APESV,APESV; application rate 0.5 kg/ha,very good (a very good herbicidal activity is given at values of at least 85)
same,herbicidal activity against ECHCG,ECHCG; application rate 0.5 kg/ha,very good (a very good herbicidal activity is given at values of at least 85)
Cc1cc(C)cc(Oc2cccc(F)c2Nc2nc(N)nc(CC(C)C)n2)c1 [Example 17],herbicidal activity against SEFTA,SETFA; application rate 1000 g/ha,very good (a very good herbicidal activity is given at values of at least 85)
same,herbicidal activity against APESV,APESV; application rate 1000 g/ha,good (a good herbicidal activity is given at values of at least 70)
Cc1cc(C)cc(Oc2cccc(F)c2Nc2nc(N)nc(C(C)C)n2)c1 [Example 19],herbicidal activity against SETFA,SETFA; application rate 0.25 kg/ha,very good (a very good herbicidal activity is given at values of at least 85)
same,herbicidal activity against SEFTA,SETFA; application rate 250 g/ha,very good (a very good herbicidal activity is given at values of at least 85)
same,herbicidal activity against APESV,APESV; application rate 0.25 kg/ha,very good (a very good herbicidal activity is given at values of at least 85)
same,herbicidal activity against APESV,APESV; application rate 250 g/ha,very good (a very good herbicidal activity is given at values of at least 85)
same,herbicidal activity against ECHCG,ECHCG; application rate 0.25 kg/ha,very good (a very good herbicidal activity is given at values of at least 85)
same,herbicidal activity against ECHCG,ECHCG; application rate 250 g/ha,very good (a very good herbicidal activity is given at values of at least 85)
COc1cc(OC)cc(Oc2cccc(F)c2Nc2nc(N)nc(C(C)(C)F)n2)c1 [Example 27],herbicidal activity against SETFA,SETFA; application rate 0.25 kg/ha,very good (a very good herbicidal activity is given at values of at least 85)
same,herbicidal activity against APESV,APESV; application rate 0.25 kg/ha,very good (a very good herbicidal activity is given at values of at least 85)
same,herbicidal activity against ECHCG,ECHCG; application rate 0.25 kg/ha,very good (a very good herbicidal activity is given at values of at least 85)
CCC(C)(F)c1nc(N)nc(Nc2c(F)cccc2Oc2cc(C)cc(C)c2)n1 (centres unmarked) [Example 32],herbicidal activity against SETFA,SETFA; application rate 0.25 kg/ha,very good (a very good herbicidal activity is given at values of at least 85)
same,herbicidal activity against APESV,APESV; application rate 0.25 kg/ha,very good (a very good herbicidal activity is given at values of at least 85)
same,herbicidal activity against ECHCG,ECHCG; application rate 0.25 kg/ha,very good (a very good herbicidal activity is given at values of at least 85)
Cc1cc(C)cc(Oc2cccc(Cl)c2Nc2nc(N)nc(C(C)(C)F)n2)c1 [Example 37],herbicidal activity against APESV,APESV; application rate 0.25 kg/ha,very
same,herbicidal activity against ECHCG,ECHCG; application rate 0.25 kg/ha,good (a good herbicidal activity is given at values of at least 70)
CC(C)(F)c1nc(N)nc(Nc2c(F)c(F)cc(-c3ccccc3)c2F)n1 [Example 44],herbicidal activity against SETFA,SETFA; application rate 0.5 kg/ha,good (a good herbicidal activity is given at values of at least 70)
same,herbicidal activity against AMARE,AMARE; application rate 0.5 kg/ha,good to very good
CN(C)c1cc(Oc2cccc(F)c2Nc2nc(N)nc(C(C)(C)F)n2)cc(C(F)(F)F)c1 [Example 80],herbicidal activity against SETFA,SETFA; application rate 125 g/ha,very good (a very good herbicidal activity is given at values of at least 85)
same,herbicidal activity against ECHCG,ECHCG; application rate 125 g/ha,very good (a very good herbicidal activity is given at values of at least 85)
Cc1cc(OCC2CCC2)cc(Oc2cccc(F)c2Nc2nc(N)nc(C(C)(C)F)n2)c1 [Example 83],herbicidal activity against AMARA,AMARE; application rate 250 g/ha,very good (a very good herbicidal activity is given at values of at least 85)
same,herbicidal activity against APESV,APESV; application rate 250 g/ha,good (a good herbicidal activity is given at values of at least 70)
same,herbicidal activity against ECHCG,ECHCG; application rate 250 g/ha,good (a good herbicidal activity is given at values of at least 70)
COc1cc(I)cc(Oc2cccc(F)c2Nc2nc(N)nc(C(C)(C)F)n2)c1 [Example 84],herbicidal activity against SETFA,SETFA; application rate 250 g/ha,very good (a very good herbicidal activity is given at values of at least 85)
same,herbicidal activity against AMARA,AMARE; application rate 250 g/ha,very good (a very good herbicidal activity is given at values of at least 85)
same,herbicidal activity against ECHCG,ECHCG; application rate 250 g/ha,very good (a very good herbicidal activity is given at values of at least 85)
Cc1cc(Oc2cccc(F)c2Nc2nc(N)nc(C(C)(C)F)n2)cc(OC2CCCC2)c1 [Example 85],herbicidal activity against AMARA,AMARE; application rate 250 g/ha,very good (a very good herbicidal activity is given at values of at least 85)
Cc1cc(Oc2cccc(F)c2Nc2nc(N)nc(C(C)(C)F)n2)cc(OC2CCCCC2)c1 [Example 86],herbicidal activity against SEFTA,SETFA; application rate 500 g/ha,good (a good herbicidal activity is given at values of at least 70)
CC(C)(F)c1nc(N)nc(Nc2c(F)cccc2Oc2cc(-c3ccccc3)cc(C(F)(F)F)c2)n1 [Example 87],herbicidal activity against SETFA,SETFA; application rate 500 g/ha,very good (a very good herbicidal activity is given at values of at least 85)
same,herbicidal activity against AMARA,AMARE; application rate 500 g/ha,very good (a very good herbicidal activity is given at values of at least 85)
same,herbicidal activity against ECHCG,ECHCG; application rate 500 g/ha,very good (a very good herbicidal activity is given at values of at least 85)
CC(C)(F)c1nc(N)nc(Nc2c(F)cccc2Oc2cccc(C(F)(F)F)c2)n1 [Example 88],herbicidal activity against SETFA,SETFA; application rate 500 g/ha,very good (a very good herbicidal activity is given at values of at least 85)
same,herbicidal activity against AMARA,AMARE; application rate 500 g/ha,very good (a very good herbicidal activity is given at values of at least 85)
same,herbicidal activity against ECHCG,ECHCG; application rate 500 g/ha,very good (a very good herbicidal activity is given at values of at least 85)
CCc1cccc(Oc2cccc(F)c2Nc2nc(N)nc(C(C)(C)F)n2)c1 [Example 90],herbicidal activity against AMARE,AMARE; application rate 500 g/ha,very good (a very good herbicidal activity is given at values of at least 85)
same,herbicidal activity against APESV,APESV; application rate 500 g/ha,very good (a very good herbicidal activity is given at values of at least 85)
same,herbicidal activity against ECHCG,ECHCG; application rate 500 g/ha,very good (a very good herbicidal activity is given at values of at least 85)
COC(=O)c1cccc(Oc2cccc(F)c2Nc2nc(N)nc(C(C)(C)F)n2)c1 [Example 91],herbicidal activity against APESV,APESV; application rate 500 g/ha,very good (a very good herbicidal activity is given at values of at least 85)
CC(C)(C)c1cccc(Oc2cccc(F)c2Nc2nc(N)nc(C(C)(C)F)n2)c1 [Example 92],herbicidal activity against SETFA,SETFA; application rate 500 g/ha,very good (a very good herbicidal activity is given at values of at least 85)
same,herbicidal activity against APESV,APESV; application rate 500 g/ha,very good (a very good herbicidal activity is given at values of at least 85)
same,herbicidal activity against ECHCG,ECHCG; application rate 500 g/ha,very good (a very good herbicidal activity is given at values of at least 85)
CC(C)(F)c1nc(N)nc(Nc2c(F)cccc2Oc2cccc(Br)c2)n1 [Example 93],herbicidal activity against SETFA,SETFA; application rate 500 g/ha,very good (a very good herbicidal activity is given at values of at least 85)
same,herbicidal activity against APESV,APESV; application rate 500 g/ha,very good (a very good herbicidal activity is given at values of at least 85)
same,herbicidal activity against ECHCG,ECHCG; application rate 500 g/ha,very good (a very good herbicidal activity is given at values of at least 85)
CC(C)(F)c1nc(N)nc(Nc2c(F)cccc2Oc2cccc(Cl)c2)n1 [Example 94],herbicidal activity against SETFA,SETFA; application rate 500 g/ha,very good (a very good herbicidal activity is given at values of at least 85)
same,herbicidal activity against APESV,APESV; application rate 500 g/ha,very good (a very good herbicidal activity is given at values of at least 85)
same,herbicidal activity against ECHCG,ECHCG; application rate 500 g/ha,very good (a very good herbicidal activity is given at values of at least 85)
CC(C)(F)c1nc(N)nc(Nc2c(F)cccc2Oc2cccc(OC(F)F)c2)n1 [Example 95],herbicidal activity against SETFA,SETFA; application rate 500 g/ha,very good (a very good herbicidal activity is given at values of at least 85)
same,herbicidal activity against APESV,APESV; application rate 500 g/ha,very good (a very good herbicidal activity is given at values of at least 85)
same,herbicidal activity against ECHCG,ECHCG; application rate 500 g/ha,very good (a very good herbicidal activity is given at values of at least 85)
CC(C)(F)c1nc(N)nc(Nc2c(F)cccc2Oc2cc(OC(F)(F)F)cc(-c3ccccc3)c2)n1 [Example 98],herbicidal activity against SETFA,SETFA; application rate 500 g/ha,very good (a very good herbicidal activity is given at values of at least 85)
same,herbicidal activity against AMARE,AMARE; application rate 500 g/ha,very good (a very good herbicidal activity is given at values of at least 85)
same,herbicidal activity against ECHCG,ECHCG; application rate 500 g/ha,very good (a very good herbicidal activity is given at values of at least 85)
CN(c1ccccc1)c1cccc(F)c1Nc1nc(N)nc(C(C)(C)F)n1 [Example 102],herbicidal activity against SEFTA,SETFA; application rate 1000 g/ha,very good (a very good herbicidal activity is given at values of at least 85)
same,herbicidal activity against AMARE,AMARE; application rate 1000 g/ha,very good (a very good herbicidal activity is given at values of at least 85)
same,herbicidal activity against ECHCG,ECHCG; application rate 1000 g/ha,very good (a very good herbicidal activity is given at values of at least 85)
Cc1cccc(N(C)c2cccc(F)c2Nc2nc(N)nc(C(C)(C)F)n2)c1 [Example 103],herbicidal activity against SEFTA,SETFA; application rate 500 g/ha,very good (a very good herbicidal activity is given at values of at least 85)
same,herbicidal activity against AMARE,AMARE; application rate 500 g/ha,very good (a very good herbicidal activity is given at values of at least 85)
same,herbicidal activity against ECHCG,ECHCG; application rate 500 g/ha,very good (a very good herbicidal activity is given at values of at least 85)
